Values joined by “and” are separate entries in the source; they are usually repeats but may differ in a detail not shown here. Equal entries are not always repeated. Where two headings read alike, the source gives them in different places.
How the values were obtained:
C. parvum = C. parvum mouse model; cited from earlier work
[1] = tested on: T. gondii RHΔΔ TgPheRS[M484I] [V262A] double mutant; assay: Tachyzoite lytic assay, M484I_V262A double mutant; format: cell-based, Toxoplasma gondii; conditions: for EC50: Toxoplasma gondii
Description: In vitro cultures of HFF cells containing mature vacuoles were scraped, passaged through 23 g blunt end needles, and filtered using 3 micron filters. Purified parasites were resuspended in 350 μL of cytomix plus[49] and combined in a BTX 4 mm gap cuvette with 30 μL of PCR amplified templates corresponding to mutations of interest and 10 μg of pSAG1:Cas9-GFP U6:sgTgPheRS^[mut] (in 20 μL, 400 μL total volume, see Supplementary Data 1 for sgRNA sequences) prior to electroporation using a BTX ETM 830 electroporator. Amplified templates for TgPheRS mutations were generated from gBlocks (Integrated DNA Technologies, Coralville, IA, USA) that contain a BclI restriction site that replaces the PAM sequence to protect the repair template from being cut by Cas9. At 16 h post-transfection, transgenic parasites expressing pSAG1:Cas9-GFP were sorted on a Sony SH800 FACS sorter directly into 96-well plates. Single clones containing TgPheRS^[mut] were identified by amplifying a ~500 bp PCR fragment around introduced mutation followed by digestion using BclI (New England Biolabs) BclI sensitive clones were expanded and the locus was Sanger sequenced to verify incorporation of each independent mutation. To generate firefly luciferase (FLuc) expressing strains, freshly harvested parasites were combined with 20 μg of pTUB-FLUC DHFR flox plasmid and 10 μg of pSAG1:Cas9-GFP U6:sgUPRT[50] (in 50 μL cytomix plus) and transformed by electroporation as described above. […]
Parasite growth on HFF monolayers was monitored using a 96-well plate-based lytic assay modified from a previously described protocol. […] Plates were rinsed with water, air dried, and absorption quantified on the Cytation 3 multi-mode imager at 570 nm wavelength. % parasite growth was calculated as 100−[(OD value for infected cultures at each concentration of compound/average OD value for no compound and no parasite infection) × 100]. EC50 values were calculated based on the mean of three biological replicates with each replicate containing two technical replicates.

[2] = 30 mg/kg oral vs 10 mg/kg
[3] = tested on: T. gondii ME49-FLuc tissue cysts; format: in vivo, Ifngr1-/- mice
Description: (§1) Ifngr1^−/− (B6.129S7-Ifngr1 ^tm1Agt /J) and CBA/J mice were purchased from Jackson Laboratory and bred locally at Washington University. Animal studies were conducted according to the U.S. Public Health Service policy on human care and use of laboratory animals. Animals were maintained in facilities approved by the Association for Assessment and Accreditation of Laboratory Animal Care. Studies were approved by Division of Comparative Medicine, Washington University. […] Animals were maintained on a 12:12 light cycle, room temperature maintained at 70℉ ± 2℉, and room humidity maintained at 50% ± 20%.
(§2) Testing of compounds to prevent reactivation of chronic infection was […] to test the efficacy of PheRS inhibitors against chronic infection. In both cases, male and female C57BL/6 Ifngr1^−/− mice were infected by oral gavage with 5 cysts of the ME49-Fluc strain isolated from chronically infected CBA/J mice. […] Animals were monitored for survival and weight loss for 30 days post-treatment.

[4] = tested on: T. gondii ME49-FLuc chronic infection; format: in vivo, Ifngr1-/- mice; conditions: for Days (survival time of single mouse) / Survival event flag of single mouse (1 or 0): Fig 6C
Description: as §1, §2

[5] = tested on: N. caninum expressing lacZ; assay: Neospora caninum β-galactosidase assay; format: cell-based; conditions: Neospora caninum
Description: β-galactosidase assays were conducted using tissue culture grade 96-well plates (TPP) containing confluent monolayers of HFF cells. A 10-point compound dilution series (2-fold) for each compound was generated as described above (2X concentration, 0.1% final DMSO). Growth of the N. caninum strain expressing lacZ was monitoring using a β-galactosidase (β-gal) assay as described in[21] with the following modifications. N. caninum lacZ expressing parasites (1 × 10^3) were added (in 100 μL volume) into 96-well plates containing HFF monolayers to reach final compound concentration (5.0 μM to 0.002 μM in 200 μL total volume). Plates were incubated at 37 °C, 5% CO2 for 72 h prior to completing β-gal assay as previously described[23],[27],[51]. Briefly, parasite containing monolayers were lysed with 1.0% Triton X-100 and β-gal activity determined by adding 1 mM chlorophenolred-β-D-galactopyranoside followed by monitoring absorption at 570 nm on a Cytation 3 multi-mode imager (BioTek), as described.

Row | SMILES | reduction of oocyst shedding (C. parvum) | shift of EC50, double mutant ([1]; M484I and V262A double mutant) | EC50 ([1]; 72 h, read-out: EC50, M484I_V262A) | EC50 ([1]; Table S4, V262A-M484I, read-out: EC50 (growth restriction)) | plasma levels at increased dose [2] | survival vs sulfadiazine, oral challenge model ([3]; 10 mg/kg p.o. 20 days, P = 0.0487, Mantel-Cox) | mean survival ([3]; 10 mg/kg p.o. QD for 10 days from 48 h post-challenge) | mean survival ([3]; 10 mg/kg p.o. QD for 20 days from 48 h post-challenge) | mice in which death was prevented ([3]; 10 mg/kg p.o. QD, 20 days) | animals cured by treatment, overall ([3]; 10 day and 20 day cohorts together) | onset of death, reactivation model ([4]; 10 mg/kg p.o. QD, 16 days) | survival vs vehicle, reactivation model ([4]; 10 mg/kg p.o. once a day, 16 days, P = 0.0003, Mantel-Cox) | Days (survival of individual mice) ([4]; 10 mg/kg, c3: 1 = death, 0 = survivor) | Days (survival time of single mouse) ([4]; 10d-10 mg / kg) | Survival event flag of single mouse (1 or 0) ([4]; 10d-10 mg / kg) | Days (survival time of single mouse) ([4]; 20d - 10 mg / kg, 10 mg/kg) | Survival event flag of single mouse (1 or 0) ([4]; 20d - 10 mg / kg, 10 mg/kg) | EC50 ([5]; Table S3, 72 h, lacZ, read-out: N. caninum EC50) | EC50 ([5]; read-out: N. caninum (EC50, Fig S2 source data))
1 | COc1ccc(NC(=O)N2CCCCN3[C@H](CO)[C@H](c4ccc(C#Cc5ccccc5)cc4)[C@@H]3C2)cc1 [BRD3444] | 96% |  |  |  |  |  |  |  |  |  |  |  |  |  |  |  |  |  | 
2 | COc1ccc(NC(=O)N2CCCCN3[C@H](CN(C)C)[C@H](c4ccc(C#Cc5ccccc5)cc4)[C@@H]3C2)cc1 [BRD7929] |  | only shifted the EC50 slightly more than every single mutation | 265 nM | 234 nM | did not lead to a proportional increase in plasma levels | survived significantly longer than sulfadiazine mice | 16.5 days | 21 days | 3 of 8 | 4 of 16 | delayed onset of death | survived significantly longer | 10 days and 12 days and 24 days and 20 days and 30 days and 23 days and 22 days | 13 days and 29 days and 14 days and 17 days and 19 days and 16 days | 1 and 0 | 29 days and 17 days and 15 days and 20 days and 19 days and 22 days | 0 and 1 | 42 nM | 42.4 nM

Source: paper PMC8786932, “Bicyclic azetidines target acute and chronic stages of Toxoplasma gondii by inhibiting parasite phenylalanyl t-RNA synthetase” (Nature Communications, 2022)
